From ChEMBL document CHEMBL1135076, “Leishmanicidal activity of some aliphatic diamines and amino-alcohols” (Bioorg Med Chem Lett, 2002) come the findings set out here.

Structures are written as SMILES.

What all share (type): functional, organism-based
Assay [1] concerns Leishmania amazonensis. The experiment in a line: Tested in vitro for leishmanicidal activity against Leishmania amazonensis (PH8) at the concentration of 50 ug/mL; ++ indicates 80-90% lysis of parasites.
Assay [2] deals with Leishmania braziliensis. The experiment in a line: Tested in vitro for leishmanicidal activity against Leishmania brasiliensis (2903) at the concentration of 10 ug/mL; + indicates Less than 70% lysis of parasites.
The test system of assay [3] is Leishmania donovani. The assay can be described thus: In vitro for leishmanicidal activity against Leishmania donovani (PP75) at the concentration of 100 ug/mL.
The test system of assay [4] is Leishmania braziliensis. The assay can be described thus: Tested in vitro for leishmanicidal activity against Leishmania brasiliensis (2903) at the concentration of 25 ug/mL; + indicates Less than 70% lysis of parasites.
Assay [5] deals with Leishmania donovani. The assay can be described thus: Tested in vitro for leishmanicidal activity against Leishmania donovani (PP75) at the concentration of 25 ug/mL;+ indicates Less than 70% lysis of parasites.
Assay [6] deals with Leishmania donovani. The experiment in a line: Tested in vitro for leishmanicidal activity against Leishmania donovani (PP75) at the concentration of 50 ug/mL;++ indicates 80-90%lysis of parasites.
Assay [7] concerns Leishmania amazonensis. The experiment in a line: In vitro for leishmanicidal activity against Leishmania amazonensis (PH8) at the concentration of 10 ug/mL.
Assay [8] relates to Leishmania amazonensis. The experiment in a line: In vitro for leishmanicidal activity against Leishmania amazonensis (PH8) at the concentration of 100 ug/mL.
For assay [9], the system named is Leishmania amazonensis. The assay can be described thus: Tested in vitro for leishmanicidal activity against Leishmania amazonensis (PH8) at the concentration of 25 ug/mL; + indicates less than 70% lysis of parasites.
Assay [10] has as its system Leishmania braziliensis. The experiment in a line: Tested in vitro for leishmanicidal activity against Leishmania brasiliensis (2903) at the concentration of 50 ug/mL; ++ indicates 80-90%lysis of parasites.
Assay [11] concerns Leishmania donovani. The experiment in a line: In vitro for leishmanicidal activity against Leishmania donovani (PP75) at the concentration of 10 ug/mL.
In assay [12] the test system is Leishmania braziliensis. The experiment in a line: In vitro for leishmanicidal activity against Leishmania brasiliensis (2903) at the concentration of 100 ug/mL.
In assay [13] the test system is Leishmania braziliensis. The experiment in a line: Tested in vitro for leishmanicidal activity against Leishmania brasiliensis (2903) at the concentration of 10 ug/mL;+ indicates Less than 70% lysis of parasites.
The test system of assay [14] is Leishmania amazonensis. The assay can be described thus: In vitro for leishmanicidal activity against Leishmania amazonensis (PH8) at the concentration of 50 ug/mL.
The subject of assay [15] is Leishmania amazonensis. The experiment in a line: Tested in vitro for leishmanicidal activity against Leishmania amazonensis (PH8) at the concentration of 25 ug/mL;++ indicates 80-90% lysis of parasites.
In assay [16] the test system is Leishmania donovani. The experiment in a line: In vitro for leishmanicidal activity against Leishmania donovani (PP75) at the concentration of 50 ug/mL.
The test system of assay [17] is Leishmania braziliensis. The assay can be described thus: Tested in vitro for leishmanicidal activity against Leishmania brasiliensis (2903) at the concentration of 25 ug/mL;++ indicates 80-90% lysis of parasites.
Assay [18] deals with Leishmania donovani. The assay can be described thus: Tested in vitro for leishmanicidal activity against Leishmania donovani (PP75) at the concentration of 25 ug/mL;++ indicates 80-90%lysis of parasites.
Assay [19] relates to Leishmania braziliensis. The assay can be described thus: Tested in vitro for leishmanicidal activity against Leishmania brasiliensis (2903) at the concentration of 10 ug/mL; ++ indicates 80-90% lysis of parasites.
Assay [20] relates to Leishmania amazonensis. The assay can be described thus: Tested in vitro for leishmanicidal activity against Leishmania amazonensis (PH8) at the concentration of 10 ug/mL; ++ indicates 80-90% lysis of parasites.
In assay [21] the test system is Leishmania donovani. The assay can be described thus: Tested in vitro for leishmanicidal activity against Leishmania donovani (PP75) at the concentration of 10 ug/mL;++ indicates 80-90% lysis of parasites.
In assay [22] the test system is Leishmania donovani. The experiment in a line: Tested in vitro for leishmanicidal activity against Leishmania donovani (PP75) at the concentration of 10 ug/mL.
Assay [23] relates to Leishmania amazonensis. The experiment in a line: Tested in vitro for leishmanicidal activity against Leishmania amazonensis (PH8) at the concentration of 50 ug/mL; + indicates less than 70% lysis of parasites.
For assay [24], the system named is Leishmania donovani. The assay can be described thus: Tested in vitro for leishmanicidal activity against Leishmania donovani (PP75) at the concentration of 50 ug/mL;+ indicates Less than 70% lysis of parasites.
Assay [25] deals with Leishmania braziliensis. The experiment in a line: In vitro for leishmanicidal activity against Leishmania brasiliensis (2903) at the concentration of 10 ug/mL.
Assay [26] concerns Leishmania braziliensis. The experiment in a line: Tested in vitro for leishmanicidal activity against Leishmania brasiliensis (2903) at the concentration of 50 ug/mL; + indicates Less than 70% lysis of parasites.
The subject of assay [27] is Leishmania donovani. The experiment in a line: Tested in vitro for leishmanicidal activity against Leishmania donovani (PP75) at the concentration of 10 ug/mL++ indicates 80-90% lysis of parasites.
For assay [28], the system named is Leishmania braziliensis. The assay can be described thus: Tested in vitro for leishmanicidal activity against Leishmania brasiliensis (2903) at the concentration of 10 ug/mL;++ indicates 80-90% lysis of parasites.
Assay [29] relates to Leishmania donovani. The experiment in a line: Tested in vitro for leishmanicidal activity against Leishmania donovani (PP75) at the concentration of 25 ug/mL;++ indicates 80-90% lysis of parasites.
Assay [30] relates to Leishmania braziliensis. The experiment in a line: Tested in vitro for leishmanicidal activity against Leishmania brasiliensis (2903) at the concentration of 10 ug/mL; + indicatesLess than 70% lysis of parasites.
Assay [31] has as its system Leishmania braziliensis. The experiment in a line: Tested in vitro for leishmanicidal activity against Leishmania brasiliensis (2903) at the concentration of 25 ug/mL; ++ indicates 80-90% lysis of parasites.
For assay [32], the system named is Leishmania amazonensis. The experiment in a line: Tested in vitro for leishmanicidal activity against Leishmania amazonensis (PH8) at the concentration of 25 ug/mL; ++ indicates 80-90% lysis of parasites.
For assay [33], the system named is Leishmania braziliensis. The experiment in a line: Tested in vitro for leishmanicidal activity against Leishmania brasiliensis (2903) at the concentration of 25 ug/mL; ++ indicates 80-90%lysis of parasites.

Turning to `CCCCCCCCCCCCCCC(CO)NCC(=O)OCC` (configuration not stated), the Activity in the assay with Leishmania amazonensis [1] was 80-90% lysis of parasites; in the assay with Leishmania braziliensis [2] it was 80-90% lysis of parasites; in the assay with Leishmania donovani [3], “+”; in the assay on Leishmania braziliensis [4], 80-90% lysis of parasites; in the assay with Leishmania donovani [5], 80-90% lysis of parasites; in the assay on Leishmania donovani [6], 80-90% lysis of parasites. Moreover, the Activity was 80-90% lysis of parasites in the assay with Leishmania amazonensis [7]; “+” in the assay on Leishmania amazonensis [8]; 80-90% lysis of parasites in the assay with Leishmania amazonensis [9]; 80-90% lysis of parasites in the assay with Leishmania braziliensis [10]; 80-90% lysis of parasites in the assay with Leishmania donovani [11].
Consider `CCCCCCCCCCCCCCC(CN(CC)CC)NC(=O)CCCC(=O)O` (configuration not stated), for which the Activity entry is “+” with Leishmania braziliensis [12]; “+” in the assay on Leishmania donovani [3]; 80-90% lysis of parasites in the assay on Leishmania amazonensis [7]; “+” in the assay with Leishmania amazonensis [8]; 80-90% lysis of parasites in the assay on Leishmania braziliensis [13]; “+” with Leishmania amazonensis [14]. Moreover, the Activity in the assay with Leishmania amazonensis [15] was 80-90% lysis of parasites; in the assay on Leishmania donovani [11], 80-90% lysis of parasites; with Leishmania donovani [16], “+”; in the assay on Leishmania braziliensis [17] it was 80-90% lysis of parasites; with Leishmania donovani [18], 80-90% lysis of parasites.
Consider `CCCCCCCCCCCCCCC(CO)NCC` (configuration not stated), for which the Activity in the assay with Leishmania braziliensis [19] is 80-90% lysis of parasites; in the assay on Leishmania donovani [3] it was “+”; with Leishmania amazonensis [20], 80-90% lysis of parasites; with Leishmania amazonensis [8], “+”; in the assay on Leishmania amazonensis [14], “+”; in the assay with Leishmania donovani [16] it was “+”. Moreover, the Activity in the assay with Leishmania donovani [21] is listed as 80-90% lysis of parasites.
Consider `CCCCCCCCCCCCCCC(CO)NCC(=O)O` (configuration not stated), for which the Activity entry in the assay with Leishmania donovani [22] is “Less than 70% lysis of parasites”; in the assay with Leishmania amazonensis [23], “Less than 70% lysis of parasites”; in the assay on Leishmania donovani [3] it was “+”; in the assay on Leishmania braziliensis [4], “Less than 70% lysis of parasites”; in the assay on Leishmania donovani [5] it was “Less than 70% lysis of parasites”; in the assay with Leishmania donovani [24] it was “Less than 70% lysis of parasites”. Also, the Activity result with Leishmania amazonensis [7] was “Less than 70% lysis of parasites”; in the assay on Leishmania amazonensis [8] it was “+”; with Leishmania amazonensis [9], “Less than 70% lysis of parasites”; with Leishmania braziliensis [25] it was “Less than 70% lysis of parasites”; with Leishmania braziliensis [26], “Less than 70% lysis of parasites”.
Consider `CCCCCCCCCCCCCCC(N)CN(CC(=O)OCC)CC(=O)OCC` (configuration not stated), for which the Activity entry with Leishmania braziliensis [12] is “+”; with Leishmania donovani [3], “+”; with Leishmania amazonensis [20], 80-90% lysis of parasites; with Leishmania amazonensis [8], “+”; with Leishmania amazonensis [14] it was “+”; in the assay on Leishmania donovani [16] it was “+”. For the same molecule, the Activity in the assay on Leishmania donovani [27] and in the assay on Leishmania braziliensis [28] was 80-90% lysis of parasites throughout.
Take `CCCCCCCCCCCCCCC(COCc1ccccc1)NCC` (configuration not stated): the Activity in the assay on Leishmania donovani [29] was 80-90% lysis of parasites; in the assay with Leishmania braziliensis [30], 80-90% lysis of parasites; in the assay with Leishmania braziliensis [31], 80-90% lysis of parasites; in the assay on Leishmania donovani [3], “+”; with Leishmania amazonensis [7] it was 80-90% lysis of parasites; in the assay with Leishmania amazonensis [8], “+”. The Activity entry is “+” with Leishmania amazonensis [14], 80-90% lysis of parasites in the assay with Leishmania donovani [11], 80-90% lysis of parasites in the assay with Leishmania donovani [16] and 80-90% lysis of parasites in the assay with Leishmania amazonensis [32].
For `CCCCCCCCCCCCCCC(CO)N(CC)CC` (configuration not stated), the Activity with Leishmania braziliensis [33] is 80-90% lysis of parasites; in the assay with Leishmania donovani [3], “+”; with Leishmania donovani [5] it was 80-90% lysis of parasites; with Leishmania amazonensis [7], 80-90% lysis of parasites; in the assay with Leishmania amazonensis [8] it was “+”; in the assay with Leishmania amazonensis [14], “+”. The Activity is 80-90% lysis of parasites in the assay with Leishmania amazonensis [9], 80-90% lysis of parasites with Leishmania donovani [11] and “+” in the assay with Leishmania donovani [16].
